Results from patent US8507199B2, “Multi-color time resolved fluorophores based on macrocyclic lanthanide complexes” (Lumiphore, Inc., priority 2007, dated 2013).
Several values for one entry are separate records, joined by “and”; a condition that tells them apart may be missing. Equal values may be shown once.

Legend:
[1] = Luminescence lifetime decay (biexponential fit) of FITC-Tb-BH22IAM conjugate; assay type: physicochemical; details: Tb-coordinated conjugate, excitation at BH22IAM absorption (~340 nm), emission at 520 nm
Text: A short lifetime corresponding to the direct excitation of fluorescein (3.92 nsec) and a long lifetime corresponding to excitation of BH22IAM and energy transfer to fluorescein (524 nsec).
In another exemplary embodiment, the compounds of the invention emit light at an emission wavelength of the fluorophore attached to the metal chelate through the acceptor-linker. […] For example, compound 3, when coordinated to terbium and excited at a BH22IAM absorption wavelength (˜340 nm), the metal chelate emits at 520 nm, the characteristic wavelength of fluorescein with a lifetime of 524 nsec. The new lifetime is over 100-fold longer than the lifetime for a fluorescein solution that is directly excited (<5 nsec).
The 524 nsec of the conjugated fluorescein is acquired through direct excitation of the Tb-BH22IAM complex at 340 nm, which normally has a very long lifetime (2.6 msec), followed by energy transfer to the conjugated fluorescein and emission at the characteristic wavelength for fluorescein (520 nm).

[2] = Steady-state absorption and emission spectra; assay type: physicochemical
Text: FIG. 8 is a steady-state absorption spectrum of FITC-BH22IAM conjugate.

O=C(O)c1cc(NC(=S)NCCCCC2CN3CCNC(=O)c4cccc(c4O)C(=O)NCCN(CCNC(=O)c4cccc(c4O)C(=O)N2)CCN2CCNC(=O)c4cccc(c4O)C(=O)NCCN(CCNC(=O)c4cccc(c4O)C(=O)NCC2)CC3)ccc1-c1c2ccc(=O)cc-2oc2cc(O)ccc12 (stereo not drawn) [Compound 4a]
long lifetime corresponding to excitation of BH22IAM and energy transfer to fluorescein [1]: 520 nsec and 524 nsec
absorption maxima ([2]; 340 nm assigned to BH22IAM, 490 nm to fluorescein): 340 nm and 490 nm
emission wavelength / emission maxima ([2]; excitation at BH22IAM absorption (~340 nm)): 520 nm
